Where a name gives a salt, the structure may show the parent alone.

Tested on in one assay: not listed separately
The assay can be described thus: MIC of test compounds against various organisms. It is filed as cell-based.
Conditions: not given
Take `COc1ccc2nccc(NC(=O)[C@H]3CC[C@H](NCc4ccc5c(c4)NC(=O)CS5)CC3)c2c1` [Example 28, Trans 4-[(3-Oxo-3,4-dihydro-2-H-benzo[1,4]thiazin-6-ylmethyl)-amino]-cyclohexanecarboxylic acid (6-methoxy-quinolin-4-yl)-amide]: the MIC is at most 4 µg/mL.

The same assay, now with this note: versus all these organisms (panel of 10 strains); read-out: MIC.
Consider `COc1ccc2nccc(NC(=O)[C@H]3CC[C@H](NCc4ccc5scnc5c4)CC3)c2n1` [Example 25, Trans-4-[(Benzothiazol-5-ylmethyl)-amino]cyclohexanecarboxylic acid(6-methoxy-[1,5]naphthyridine-4-yl)amide oxalate salt], for which the MIC is at most 64 µg/mL. `COc1ccc2nccc(NC(=O)[C@H]3CC[C@H](NCc4cc(=O)n5ccccc5n4)CC3)c2n1` [Example 26, Trans-4-[(4-Oxo-4 H pyrido[1,2-a]pyrimidin-2-ylmethyl)-amino]-cyclohexanecarboxylic acid (6-methoxy-[1,5]naphthyridin-4-yl)-amide oxalate salt]: the MIC is at most 16 µg/mL.

As to `COc1ccc2nccc(C(=O)C[C@H]3CC[C@H](NCc4ccc5c(c4)OCCO5)CC3)c2c1` [Example 27, Trans-2-{4-[(2,3-Dihydro-benzo[1,4]dioxin-6-ylmethyl)-amino]-cyclohexyl}-1-(6-methoxy-quinolin-4-yl)-ethanone oxalate salt], the MIC is at most 64 µg/mL.

For the compound `NCCCOc1ccc2nccc(NC(=O)[C@H]3CC[C@H](NCc4ccc5c(c4)OCCO5)CC3)c2n1` [Example 29, Trans-4-[(2,3-Dihydro-benzo[1,4]dioxin-6-ylmethyl)-amino]-cyclohexanecarboxylic acid [6-(3-amino-propoxy)-[1,5]naphthyridin-4-yl]-amide dioxalate], the MIC was at most 16 µg/mL.

For `COc1cc(F)c2nccc(NC(=O)[C@H]3CC[C@H](NCc4ccc5c(c4)NC(=O)CS5)CC3)c2c1` [Example 30, Trans-4-[(3-Oxo-3,4-dihydro-2-H-benzo[1,4]thiazin-6-ylmethyl)amino]-cyclohexanecarboxylic acid (8-fluoro-6-methoxy-quinolin-4-yl)-amide oxalate], the MIC was at most 4 µg/mL. As to `COc1ccc2nccc(NC(=O)[C@H]3CC[C@H](NCc4ccc5c(n4)NC(=O)CO5)CC3)c2n1` [Example 31, Trans-4-[(3-Oxo-3,4-dihydro-2H-pyrido[3,2-b][1,4]oxazin-6-ylmethyl)-amino]-cyclohexanecarboxylic acid (6-methoxy-[1,5]naphthyridin-4-yl)-amide oxalate], the MIC was at most 4 µg/mL. `COc1ccc2nccc(NC(=O)[C@H]3CC[C@H](NCc4cnc5snnc5c4)CC3)c2n1` [Example 32, Trans-4-[([1,2,3]Thiadiazolo[5,4-b]pyridin-6-ylmethyl)-amino]-cyclohexanecarboxylic acid (6-methoxy-[1,5]naphthyridin-4-yl)-amide oxalate]: the MIC was at most 4 µg/mL. On to `COc1ccc2nccc(NC(=O)[C@H]3CC[C@H](NCc4cc5c(cc4F)SCC(=O)N5)CC3)c2n1` [Example 34, Trans-4-[(7-Fluoro-3-oxo-3,4-dihydro-2H-benzo[1,4]thiazin-6-ylmethyl)-amino]-cyclohexanecarboxylic acid (6-methoxy-[1,5]naphthyridin-4-yl)-amide oxalate salt], for which the MIC was at most 4 µg/mL. Regarding `COc1ccc2nccc(NC(=O)[C@H]3CC[C@H](NCc4cc5c(c([N+](=O)[O-])c4)OCC(=O)N5)CC3)c2n1` [Example 35, Trans-4-[(8-Nitro-3-oxo-3,4-dihydro-2H-benzo[1,4]oxazin-6-ylmethyl)-amino]-cyclohexanecarboxylic Acid (6-methoxy)-[1,5]naphthyridin-4-yl)-amide Oxalate], the MIC was at most 4 µg/mL.

Turning to `COc1ccc2nccc(NC(=O)[C@H]3CC[C@H](NCc4cc(N)c5c(c4)NC(=O)CO5)CC3)c2n1` [Example 36, Trans-4-[(8-Amino-3-oxo-3,4-dihydro-2H-benzo[1,4]oxazin-6-ylmethyl)-amino]-cyclohexanecarboxylic acid (6-methoxy)-[1,5]naphthyridin-4-yl)-amide Oxalate], the MIC was at most 64 µg/mL. Same read-out and setting: the value for `COc1ccc2nccc(NC(=O)[C@]3(O)CC[C@@H](NCc4ccc5c(c4)NC(=O)CS5)CC3)c2n1` [Example 300, 1-Hydroxy-t-4-[(3-oxo-3,4-dihydro-2H-benzo[1,4]thiazin-6-ylmethyl)-amino]-r-cyclohexanecarboxylic Acid (6-methoxy-[1,5]naphthyridin-4-yl)-amide Dihydrochloride] was at most 4 µg/mL; that for `COc1ccc2nccc(NC(=O)[C@]3(O)CC[C@@H](NCc4ccc5c(n4)NC(=O)CS5)CC3)c2n1` [Example 301, 1-Hydroxy-t-4-[(3-oxo-3,4-dihydro-2H-pyrido[3,2-b][1,4]thiazin-6-ylmethyl)-amino]-r-cyclohexanecarboxylic Acid (6-methoxy-[1,5]naphthyridin-4-yl)-amide Dihydrochloride] was at most 4 µg/mL.

As to `COc1ccc2nccc(NC(=O)[C@]3(O)CC[C@@H](NCc4cc5c(cn4)SCC(=O)N5)CC3)c2n1` [Example 302, 1-Hydroxy-t-4-[(2-oxo-2,3-dihydro-1H-pyrido[3,4-b][1,4]thiazin-7-ylmethyl)-amino]-r-cyclohexanecarboxylic Acid (6-methoxy-[1,5]naphthyridin-4-yl)-amide Dihydrochloride], the MIC is at most 4 µg/mL. As to `COc1ccc2nccc(NC(=O)[C@]3(O)CC[C@@H](NCc4cnc5c(c4)NC(=O)CS5)CC3)c2n1` [Example 303, 1-Hydroxy-t-4-[(2-oxo-2,3-dihydro-1H-pyrido[2,3-b][1,4]thiazin-7-ylmethyl)-amino]-r-cyclohexanecarboxylic Acid (6-methoxy-[1,5]naphthyridin-4-yl)-amide Dihydrochloride], the MIC was at most 4 µg/mL. With `COc1ccc2nccc(NC(=O)[C@]3(O)CC[C@@H](NCc4nc5c(cc4Br)SCC(=O)N5)CC3)c2n1` [Example 304, 1-Hydroxy-t-4-[(7-bromo-3-oxo-3,4-dihydro-2H-pyrido[3,2-b][1,4]thiazin-6-ylmethyl)-amino]-r-cyclohexanecarboxylic Acid (6-methoxy-[1,5]naphthyridin-4-yl)-amide Dihydrochloride], the MIC is at most 4 µg/mL. Same read-out and setting: the value for `COc1ccc2nccc(NC(=O)[C@]3(O)CC[C@@H](NCc4ccc5c(n4)NC(=O)CO5)CC3)c2n1` [Example 305, 1-Hydroxy-t-4-[(3-oxo-3,4-dihydro-2H-pyrido[3,2-b][1,4]oxazin-6-ylmethyl)-amino]-r-cyclohexanecarboxylic Acid (6-methoxy-[1,5]naphthyridin-4-yl)-amide Dihydrochloride] was at most 4 µg/mL; that for `COc1cc(F)c2nccc(NC(=O)[C@]3(O)CC[C@@H](NCc4ccc5c(n4)NC(=O)CS5)CC3)c2c1` [Example 390, 1-Hydroxy-t-4-[(3-oxo-3,4-dihydro-2H-pyrido[3,2-b][1,4]thiazin-6-ylmethyl)-amino-r-cyclohexanecarboxylic acid (8-fluoro-6-methoxy-quinolin-4-yl)-amidedihydrochloride] was at most 4 µg/mL; that for `COc1ccc2nccc(NC(=O)[C@]3(O)CC[C@@H](NCc4ccc5c(n4)NC(=O)CS5)CC3)c2c1` [Example 391, 1-Hydroxy-t-4-[(3-oxo-3,4-dihydro-2H-pyrido[3,2-b][1,4]thiazin-6-ylmethyl)-amino-r-cyclohexanecarboxylic acid (6-methoxy-quinolin-4-yl)-amidedihydrochloride] was at most 4 µg/mL.

The subject of the next assay is S. aureus WCUH29, S. pneumoniae 1629, H. influenzae ATCC 51907, M. catarrhalis Ravisio. The assay can be described thus: MIC of further test compounds against an alternative selection of organisms. It is filed as cell-based. Particulars: versus all these organisms (alternative panel of 4 strains). As for the experimental part: The MIC […] of further test compounds against an alternative selection of organisms was determined: S. aureus WCUH29, S. pneumoniae 1629, H. influenzae ATCC 51907, M. catarrhalis Ravisio.
On to `CCc1cc2c(nc1CN[C@H]1CC[C@](O)(C(=O)Nc3ccnc4ccc(OC)nc34)CC1)NC(=O)CS2` [Example 311, 1-Hydroxy-t-4-[(7-ethyl-3-oxo-3,4-dihydro-2H-pyrido[3,2-b][1,4]thiazin-6-ylmethyl)-amino]-r-cyclohexanecarboxylic acid (6-methoxy-[1,5]naphthyridin-4-yl)-amide dihydrochloride], for which the MIC was at most 16 µg/mL.

In the case of `COCCOc1ccc2nccc(NC(=O)[C@]3(O)CC[C@@H](NCc4ccc5c(n4)NC(=O)CS5)CC3)c2n1` [Example 313, 1-Hydroxy-t-4-[(3-oxo-3,4-dihydro-2H-pyrido[3,2-b][1,4]thiazin-6-ylmethyl)-amino]-r-cyclohexanecarboxylic acid [6-(2-methoxy-ethoxy)-[1,5]naphthyridin-4-yl]-amide dihydrochloride], the MIC is at most 16 µg/mL.
